≈ marks a conversion by molar mass, not a printed value.

Data set [1] in a line: Fluticasone solubilized in molten surfactant phase at 60° C. The format is physicochemical. The procedure:
Whether the cosolvent, if present, is added to either the molten TPGS phase or the aqueous phase prior to mixing of the concentrate and the aqueous phase has been found herein to affect the stability of the resulting diluted composition. […] Cosolvents such as propylene glycol (PG) and polyethylene glycol 400 (PEG 400) can influence the amount solubilized by affecting the amount dissolved in the molten TPGS phase.
However, the order of addition influences the amount of drug that may be solubilized. If PG or PEG 400 is added in the molten TPGS phase before adding the drug, the amount solubilized increases (see Table 6b, below).

The nature of data set [2]: Amount of fluticasone solubilized in aqueous TPGS composition, by order of addition/mixing. The following applies: target concentration 180 mcg/ml; for solubility: aqueous TPGS composition, aqueous with cosolvent or surfactant or cyclodextrin. The format is physicochemical. The procedure:
In one embodiment, the drug is dissolved in the surfactant, such as molten TPGS, and then added to water. For example, when fluticasone propionate is prepared this way with a target concentration of 180 mcg/ml, the amount solubilized by addition of molten TPGS containing the drug to water is about 180 mcg/mL. The amount solubilized by addition of water to molten TPGS, followed by addition of the drug, is only 77 mcg/mL. If the aqueous phase is added to the molten TPGS, the TPGS phase forms a gel and this, apart from making the mixing process slower, makes the amount solubilized lower and variable.
Thus, in Process 1, aqueous phase is added to a solution of the drug in molten TPGS. In Process 2, a solution of the drug in molten TPGS is added to the aqueous phase. To avoid gel formation, the TPGS phase is added to the aqueous phase and slowly. Rapid addition may form gel. Also, high speed mixing reduces the formation of gel.

Consider `C[C@@H]1C[C@H]2[C@@H]3C[C@H](F)C4=CC(=O)C=C[C@]4(C)[C@@]3(F)[C@@H](O)C[C@]2(C)[C@@]1(O)C(=O)SCF` [Fluticasone, (6α,9α,11α,16α,17α)-6,9-difluoro-11-hydroxy-16-methyl-3-oxo-17-hydroxyandrosta-1,4-diene-17-carbothioic acid, S-fluoromethyl ester], for which the “Fluticasone solubilized in molten surfactant phase at 60° C.” value is given as 6.5 mg/g of TPGS in data set [1] (Surfactant phase: TPGS alone); 20.0 mg/g of TPGS in data set [1] (Surfactant phase: TPGS and polyethylene glycol 400 (1:1)); 11.9 mg/g of TPGS in data set [1] (Surfactant phase: TPGS and propylene glycol (2.4:1)). For the same compound, the “Amount solubilized as percent of theoretical concentration, Mean” value came out at 93.64% in data set [2] (Process 1 (Aqueous phase added to the TPGS phase all at once and then mixed)); 99.53% in data set [2] (Process 2 (TPGS phase added to aqueous phase slowly with mixing)).
Broadly, the solubility is the dissolved amount per volume that the medium holds. Read a low solubility as little dissolved substance. As for `CCC(=O)O[C@]1(C(=O)SCF)[C@H](C)C[C@H]2[C@@H]3C[C@H](F)C4=CC(=O)C=C[C@]4(C)[C@@]3(F)[C@@H](O)C[C@@]21C` [fluticasone propionate, (6α,9α,11α,16α,17α)-6,9-difluro-11-hydroxy-16-methyl-3-oxo-17-(1-oxopropoxy)androsta-1,4-diene-17-carbothioic acid, S-fluoromethyl ester], the solubility was approximately 180 µg/mL (≈ 360 µM) in data set [2] (addition of molten TPGS containing the drug to water) and 77 µg/mL (≈ 154 µM) in data set [2] (addition of water to molten TPGS, followed by addition of the drug).
